Measured values: ChEMBL document CHEMBL1201862, “PubChem BioAssay data set” (2004)
The source made the active and inactive calls.

Key:
[1] = molecular target: Cytochrome P450 2D6 (Homo sapiens, UniProt P10635);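 note: CYP2D6 member of a cytochrome P450 panel assay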
[2] = molecular target: Cytochrome P450 2C19 (Homo sapiens, UniProt P33261); assay: Cytochrome panel assay with activity outcomes. Panel member name: p450-cyp2c19 Compounds with AC50 equal or less than 10 uM are considered active; type: functional
[3] = viability of uninfected HEp-2 cells – cell-based, HTS, cytotoxicity control for RSV inhibitor project, dose response (AID 2410); type: functional; settings: human respiratory syncytial virus
[4] = test system: Streptococcus; assay: GAS UMAA2166 growth inhibition – luminescence, BacTiterGlo, counter-screen for streptokinase expression inhibitor project, dose response (AID 1915); type: functional, organism-based;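 note: potency for reduction of bacterial viability or growth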
[5] = molecular target: T1, Streptokinase A (Streptococcus pyogenes serotype M1, UniProt P10520); assay: viability-normalized secreted streptokinase activity reduction – plasminogen activation absorbance, OD405, dose response (AID 1914); type: functional, Streptococcus pyogenes M1 GAS;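 note: secreted streptokinase activity via plasminogen activation per viability signal from cell pellet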
T1 sequence (P10520 whole entry): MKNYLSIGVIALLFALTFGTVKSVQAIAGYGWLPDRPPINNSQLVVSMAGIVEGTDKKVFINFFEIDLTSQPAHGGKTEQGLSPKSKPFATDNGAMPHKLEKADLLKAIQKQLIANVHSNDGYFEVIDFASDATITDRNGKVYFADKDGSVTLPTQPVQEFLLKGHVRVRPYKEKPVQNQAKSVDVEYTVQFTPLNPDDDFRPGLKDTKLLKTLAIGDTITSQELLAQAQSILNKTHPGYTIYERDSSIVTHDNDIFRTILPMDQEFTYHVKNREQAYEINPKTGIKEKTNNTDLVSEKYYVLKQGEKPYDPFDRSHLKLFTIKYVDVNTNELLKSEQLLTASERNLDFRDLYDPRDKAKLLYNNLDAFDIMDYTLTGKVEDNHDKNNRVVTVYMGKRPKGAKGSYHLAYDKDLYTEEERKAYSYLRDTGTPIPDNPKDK

[6] = Luminescence Cell-Based Dose Retest to Confirm Inhibitors of Cancer Stem Cells. [Related pubchem assays (depositor defined):AID2717, AID2721]; type: functional; settings: Homo sapiens
[7] = test system: Streptococcus sp. 'group A'; assay: Streptococcus pyogenes SK(-)GAS viability under kanamycin – luminescence, BacTiterGlo, confirmation, counter-screen for streptokinase expression inhibitor project, dose response (AID 1900); type: functional, organism-based
[8] = test system: H4; assay: Luminescence Cell-Based Dose Response HTS to Identify Activators of 5'UTR Stem-Loop Driven Prion Protein mRNA Translation in H4 Neuroglioblastoma Cells. [Related pubchem assays: 1829 (Project Summary), 1814 (Primary HTS)]; type: functional; settings: Homo sapiens
[9] = molecular target: Cytochrome P450 2C9 (Homo sapiens, UniProt P11712)
[10] = molecular target: T2, Cytochrome P450 1A2 (Homo sapiens, UniProt P05177);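 note: PubChem cytochrome P450 panel assay, CYP1A2 panel member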
T2 sequence (P05177 whole entry): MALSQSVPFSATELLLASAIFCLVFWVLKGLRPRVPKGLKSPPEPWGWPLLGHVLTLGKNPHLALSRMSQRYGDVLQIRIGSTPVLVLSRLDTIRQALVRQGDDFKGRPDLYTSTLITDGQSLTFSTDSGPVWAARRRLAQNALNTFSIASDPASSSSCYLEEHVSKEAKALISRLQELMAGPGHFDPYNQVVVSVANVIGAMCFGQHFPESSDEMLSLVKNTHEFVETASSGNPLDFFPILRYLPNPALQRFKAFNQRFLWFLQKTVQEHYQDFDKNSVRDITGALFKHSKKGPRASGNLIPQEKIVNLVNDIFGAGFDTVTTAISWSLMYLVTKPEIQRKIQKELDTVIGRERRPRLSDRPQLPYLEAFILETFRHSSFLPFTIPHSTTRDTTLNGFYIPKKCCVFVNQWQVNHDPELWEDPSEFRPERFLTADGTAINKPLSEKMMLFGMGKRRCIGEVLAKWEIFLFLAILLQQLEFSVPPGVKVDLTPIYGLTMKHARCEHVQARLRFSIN

[11] = molecular target: Cytochrome P450 3A4 (Homo sapiens, UniProt P08684);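 note: CYP3A4 tested as one member of a cytochrome P450 panel screen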
Sequence of Cytochrome P450 3A4 (P08684 whole entry): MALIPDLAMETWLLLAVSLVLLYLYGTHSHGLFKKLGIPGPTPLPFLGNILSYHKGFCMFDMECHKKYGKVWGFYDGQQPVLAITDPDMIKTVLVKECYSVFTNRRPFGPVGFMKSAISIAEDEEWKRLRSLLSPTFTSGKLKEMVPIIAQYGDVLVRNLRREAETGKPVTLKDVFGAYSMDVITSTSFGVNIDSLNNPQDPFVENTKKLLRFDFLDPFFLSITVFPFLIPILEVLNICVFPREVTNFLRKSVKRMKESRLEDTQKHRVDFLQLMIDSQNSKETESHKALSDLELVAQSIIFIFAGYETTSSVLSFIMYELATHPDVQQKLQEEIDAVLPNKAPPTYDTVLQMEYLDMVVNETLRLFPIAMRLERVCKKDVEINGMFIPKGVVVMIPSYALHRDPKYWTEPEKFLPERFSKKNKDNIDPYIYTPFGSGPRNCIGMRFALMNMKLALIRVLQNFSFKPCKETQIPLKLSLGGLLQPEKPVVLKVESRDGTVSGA

Sequence of Cytochrome P450 2D6 (P10635 whole entry): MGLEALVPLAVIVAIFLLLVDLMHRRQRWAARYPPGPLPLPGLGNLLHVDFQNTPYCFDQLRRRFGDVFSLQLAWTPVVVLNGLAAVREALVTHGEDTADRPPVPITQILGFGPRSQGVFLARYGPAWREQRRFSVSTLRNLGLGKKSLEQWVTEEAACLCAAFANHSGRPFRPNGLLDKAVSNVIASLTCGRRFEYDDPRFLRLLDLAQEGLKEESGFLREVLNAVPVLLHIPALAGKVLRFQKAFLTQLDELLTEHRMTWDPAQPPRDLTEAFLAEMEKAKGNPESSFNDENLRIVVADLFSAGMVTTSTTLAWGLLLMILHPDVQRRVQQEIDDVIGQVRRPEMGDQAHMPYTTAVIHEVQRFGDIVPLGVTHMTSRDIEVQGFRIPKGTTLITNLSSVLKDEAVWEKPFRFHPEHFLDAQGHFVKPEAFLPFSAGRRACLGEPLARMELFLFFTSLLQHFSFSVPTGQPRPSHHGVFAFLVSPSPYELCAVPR
Sequence of Cytochrome P450 2C19 (P33261 whole entry): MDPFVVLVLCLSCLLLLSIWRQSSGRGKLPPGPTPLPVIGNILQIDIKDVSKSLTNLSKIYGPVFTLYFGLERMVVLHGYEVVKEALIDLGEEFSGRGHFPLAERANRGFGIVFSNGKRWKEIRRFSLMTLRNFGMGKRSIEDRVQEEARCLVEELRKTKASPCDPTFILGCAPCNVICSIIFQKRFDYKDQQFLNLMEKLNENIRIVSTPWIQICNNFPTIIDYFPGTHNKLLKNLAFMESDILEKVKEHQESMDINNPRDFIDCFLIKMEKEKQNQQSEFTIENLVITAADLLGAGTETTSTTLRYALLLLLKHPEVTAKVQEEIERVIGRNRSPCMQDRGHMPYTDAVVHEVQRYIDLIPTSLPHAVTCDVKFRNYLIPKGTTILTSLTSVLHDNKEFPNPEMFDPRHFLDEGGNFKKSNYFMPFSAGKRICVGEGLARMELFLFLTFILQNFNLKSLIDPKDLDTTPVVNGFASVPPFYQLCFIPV
Sequence of Cytochrome P450 2C9 (P11712 whole entry): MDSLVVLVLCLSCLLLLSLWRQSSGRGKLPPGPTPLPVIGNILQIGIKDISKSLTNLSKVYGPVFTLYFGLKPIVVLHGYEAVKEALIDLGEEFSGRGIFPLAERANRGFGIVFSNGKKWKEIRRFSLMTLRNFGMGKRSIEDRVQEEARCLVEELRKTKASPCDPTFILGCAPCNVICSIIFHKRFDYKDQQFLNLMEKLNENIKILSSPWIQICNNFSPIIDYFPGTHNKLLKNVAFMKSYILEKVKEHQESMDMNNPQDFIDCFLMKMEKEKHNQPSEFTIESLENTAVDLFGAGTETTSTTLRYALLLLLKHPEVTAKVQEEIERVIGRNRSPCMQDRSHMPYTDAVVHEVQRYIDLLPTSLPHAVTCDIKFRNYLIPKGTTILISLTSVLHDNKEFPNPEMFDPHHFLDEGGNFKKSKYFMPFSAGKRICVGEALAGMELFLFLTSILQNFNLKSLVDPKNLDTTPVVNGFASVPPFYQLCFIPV

Question: For `COc1ccc(C2c3c(ncn(CCN4CCOCC4)c3=N)Oc3ccc4ccccc4c32)cc1OC` (configuration not stated), which AC50 [1] is on record?
Answer: The AC50 was 15.8 µM (inconclusive).

Question: And the AC50 ([2]; read-out: AC50)?
Answer: Its AC50 is 25.1 µM (inconclusive).

Question: For `COc1cccc(C2=CC(c3ccc(OC)c(OC)c3OC)n3nnnc3N2)c1` (configuration not stated), which CC50 [3] is on record?
Answer: Its CC50 is 6.56 µM (active).

Question: For `Cc1cc(OC(=O)CCCNC(=O)OC(C)(C)C)c2c3c(c(=O)oc2c1)CCC3`, which AC50 [1] is on record?
Answer: The AC50 was 15.8 µM (inconclusive).

Question: Which results are given for `c1ccc(-c2cc(-c3ccncc3)nc3ccc4ccccc4c23)cc1`?
Answer: EC50 [4]: 8.51 µM (active); EC50 [5]: > 150 µM (not active); AC50 [6]: 3.39 µM (active); EC50 [7]: 3.37 µM (active)

Question: For `Cc1ccc2c(CC(=O)N3CCc4ccccc43)coc2c1`, which EC50 [8] is on record?
Answer: The EC50 was 18.5 µM (active).

Question: With `c1cncc(-c2cncnc2NCc2cccs2)c1` as the molecule, how does the AC50 [1] read?
Answer: The AC50 was 39.8 µM (inconclusive).

Question: What does the source list for `CCOC(=O)c1c(S(=O)(=O)N2CCCCCC2)c(C)n(C)c1C`?
Answer: EC50 [4]: > 150 µM (not active); EC50 [5]: > 150 µM (not active); EC50 [7]: > 150 µM (not active)

Question: What does the source list for `Cc1cc(=O)oc2cc(OCC(=O)N3CCN(C(=O)C4COc5ccccc5O4)CC3)ccc12` (configuration not stated)?
Answer: EC50 [4]: 10.4 µM (active); EC50 [5]: > 50 µM (not active); EC50 [7]: 2.83 µM (active)

Question: For `O=S(=O)(c1ccccc1)N1CCC2(CCCN(c3ccccc3)C2)CC1`, which AC50 [1] is on record?
Answer: Its AC50 is 10 µM (inconclusive).

Question: Which results are given for `C[C@]12CC[C@@H]3c4ccc(OC(=O)c5ccccc5)cc4CC[C@H]3[C@@H]1CC[C@@H]2O` [ESTRADIOL BENZOATE]?
Answer: EC50 [4]: 4.49 µM (active); EC50 [5]: 2.43 µM (active); EC50 [7]: 2.24 µM (active)

Question: Which CC50 [3] does the source give for `Cc1ccc2c(c1)C(c1ccc([N+](=O)[O-])cc1)=NNC(c1ccc(Br)cc1)=N2` here?
Answer: Its CC50 is 14.7 µM (active).

Question: For `N#Cc1nc(-c2cccc3ccccc23)oc1NCC1CCCO1` (configuration not stated), which CC50 [3] is on record?
Answer: Its CC50 is 21.7 µM (active).

Question: For `O=C(O)CC[P+](c1ccccc1)(c1ccccc1)c1ccccc1`, which AC50 [1] is on record?
Answer: The AC50 was 3.98 µM (inconclusive).

Question: What about the AC50 [2] of the same molecule?
Answer: The AC50 was “inconclusive”.

Question: For `COc1cccc(Cn2c(=O)cnc3cnc(Oc4cccc(Cl)c4)nc32)c1`, which AC50 [1] is on record?
Answer: Its AC50 is 39.8 µM (inconclusive).

Question: What does the source list for `Nc1ccccc1Sc1nc2ccccc2[nH]1`?
Answer: EC50 [4]: > 150 µM (not active); EC50 [5]: > 150 µM (not active); EC50 [7]: 21.3 µM (active)

Question: For `COc1cc2sc3ccc(-c4ccc5[nH]ccc5c4)cc3c(=O)c2cc1OC`, which EC50 [8] is on record?
Answer: Its EC50 is > 120 µM (not active).

Question: For `O=C(c1ccc(S(=O)(=O)c2cccc(Cl)c2)c([N+](=O)[O-])c1)N1CCN(Cc2ccccc2)CC1`, which CC50 [3] is on record?
Answer: The CC50 was 6.34 µM (active).

Question: With `COc1cc2c(cc1NC(=O)CSc1nnnn1-c1ccccc1)oc1ccccc12` as the molecule, how does the CC50 [3] read?
Answer: The CC50 was 15.6 µM (active).

Question: Which AC50 [1] does the source give for `COC(=O)CSc1nnc(C)n1-c1cccc(OC)c1` here?
Answer: Its AC50 is 3.16 µM (inconclusive).

Question: With `Cc1oc2cc(Br)c(O)c(Br)c2c1-c1ccccc1` as the molecule, how does the EC50 [4] read?
Answer: The EC50 was 8.18 µM (active).

Question: What about the EC50 [5] of the same molecule?
Answer: The EC50 was > 150 µM (not active).

Question: And the EC50 [7]?
Answer: The EC50 was 8.24 µM (active).

Question: Which AC50 [1] does the source give for `CCCn1c(N)c(C(=O)CSc2nc(C)cs2)c(=O)n(C)c1=O` here?
Answer: Its AC50 is 20 µM (inconclusive).

Question: And the AC50 [9]?
Answer: Its AC50 is 28.2 µM (inconclusive).

Question: What does the source list for `CC(C)(C)OC(=O)[C@H](Cc1ccccc1)NC(=O)c1[nH]cnc1C(=O)Nc1ccc(Cl)cc1`?
Answer: EC50 [4]: 11.1 µM (active); EC50 [5]: 21.5 µM (active); AC50 [6]: 4.51 µM (active); EC50 [7]: 3.71 µM (active)

Question: Which AC50 [1] does the source give for `Fc1ccccc1OCCCCSc1ncccn1` here?
Answer: The AC50 was 17.8 µM (inconclusive).

Question: Which EC50 [4] does the source give for `O=C(/C(=N\Nc1ccc([N+](=O)[O-])cc1)Sc1nnnn1-c1ccccc1)c1ccccc1` here?
Answer: Its EC50 is 35.8 µM (active).

Question: And the EC50 [5]?
Answer: The EC50 was > 150 µM (not active).

Question: What about the EC50 [7] of the same molecule?
Answer: Its EC50 is 5.19 µM (active).

Question: For `CC(C)N(CC(N)=O)c1ncnc2sc(-c3ccccc3)cc12`, which CC50 [3] is on record?
Answer: The CC50 was 25.9 µM (active).

Question: Which AC50 [10] does the source give for `Cc1ccc(-c2ccc(=O)n(CC(=O)NCc3ccco3)n2)cc1` here?
Answer: The AC50 was 15.8 µM (inconclusive).

Question: And the AC50 [1]?
Answer: Its AC50 is 22.4 µM (inconclusive).

Question: And the AC50 [11]?
Answer: Its AC50 is 25.1 µM (inconclusive).

Question: For `O=C(NCc1ccccc1)c1cccc(COc2cccc(Cl)c2)c1`, which AC50 [1] is on record?
Answer: Its AC50 is 31.6 µM (inconclusive).

Question: For `CCCOc1ccc(NC(=O)CC2C(=O)N(CC)C(=S)N2CCCN2CCN(Cc3ccccc3)CC2)cc1` (configuration not stated), which CC50 [3] is on record?
Answer: The CC50 was 14.3 µM (active).

Question: Which AC50 [1] does the source give for `COc1cccc(-c2cncnc2Nc2ccc(F)cc2)c1` here?
Answer: Its AC50 is 39.8 µM (inconclusive).
